Patent US12673944B2, “Compounds having inhibitory activity against glucosylceramide synthase or pharmaceutically acceptable salt thereof, processes for preparing the same, and pharmaceutical compositions comprising the same” (YUHAN CORPORATION, priority 2019, dated 2026)

Key:
[1] = target: T1, glucosylceramide synthase (GCS) (Homo sapiens, UniProt Q16739); experiment: GCS enzyme inhibition assay (A549 cell lysate, NBD C6-ceramide, HPLC fluorescence); assay type: biochemical; conditions: inhibitory activity against GCS, 37° C., 90 minutes
T1 construct: The obtained supernatant was used; host or cells: A549 cells (lysate supernatant after sonication)
T1 sequence (Q16739 1-394): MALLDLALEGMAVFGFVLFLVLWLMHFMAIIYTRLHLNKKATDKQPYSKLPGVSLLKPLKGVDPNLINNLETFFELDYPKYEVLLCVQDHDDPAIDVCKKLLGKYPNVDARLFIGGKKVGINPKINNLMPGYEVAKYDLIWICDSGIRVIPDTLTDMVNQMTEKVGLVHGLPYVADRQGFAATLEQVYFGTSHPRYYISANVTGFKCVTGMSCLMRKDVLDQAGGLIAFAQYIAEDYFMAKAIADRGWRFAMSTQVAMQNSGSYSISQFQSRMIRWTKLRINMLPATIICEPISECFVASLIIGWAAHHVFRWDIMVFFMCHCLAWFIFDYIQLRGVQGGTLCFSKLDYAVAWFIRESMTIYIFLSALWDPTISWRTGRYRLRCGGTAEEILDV
Method in brief: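 A549 cell lysate (50 mM HEPES pH 7.3) served as GCS source; reactions ran 90 min at 37° C, were stopped with chloroform/methanol and lipids extracted. Activity taken as GlcCer/(Cer+GlcCer) peak area, normalised between DMSO and ibiglustat controls.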

[2] = test system: GM1 production in Jurkat cells; experiment: cells; assay type: cell-based; conditions: Homo sapiens, Jurkat, 72 h

Row | SMILES | IC50 [1] [nM] | IC50 [2] [nM]
1 | CC1(C)COc2cc(-c3cccc(CC#N)c3)ccc2C1NC(=O)O[C@@H]1CN2CCC1CC2 (stereo partly drawn) [Example 281, (S)-quinuclidin-3-yl (7-(3-(cyanomethyl)phenyl)-3,3-dimethylchroman-4-yl)carbamate] | 0.65 | 6.9
2 | O=C(NC1CCOc2cc(-c3ccc(C4CC4)cc3)ccc21)O[C@@H]1CN2CCC1CC2 (stereo partly drawn) [Example 35, (S)-quinuclidin-3-yl (7-(4-cyclopropylphenyl)chroman-4-yl)carbamate] | 2.77 | 5.44
3 | COc1ccc(-c2ccc3c(c2)OCC(C)(C)C3NC(=O)O[C@@H]2CN3CCC2CC3)c(Cl)c1 (stereo partly drawn) [Example 119, (S)-quinuclidin-3-yl (7-(2-chloro-4-methoxyphenyl)-3,3-dimethylchroman-4-yl)carbamate] | 0.65 | 1.25
4 | CC(C)Oc1cc(F)cc(-c2ccc3c(c2)OCC(C)(C)C3NC(=O)O[C@@H]2CN3CCC2CC3)c1 (stereo partly drawn) [Example 136, (S)-quinuclidin-3-yl (7-(3-fluoro-5-isopropoxyphenyl)-3,3-dimethylchroman-4-yl)carbamate] | 0.61 | 2.73
5 | CC1(C)COc2cc(-c3cccc(OC(F)(F)F)c3)ccc2C1NC(=O)O[C@@H]1CN2CCC1CC2 (stereo partly drawn) [Example 105, (S)-quinuclidin-3-yl (3,3-dimethyl-7-(3-(trifluoromethoxy)phenyl)chroman-4-yl)carbamate] | 1.11 | 1.41
6 | CC1(C)COc2cc(-c3ccc4nonc4c3)ccc2C1NC(=O)O[C@@H]1CN2CCC1CC2 (stereo partly drawn) [Example 220, (S)-quinuclidin-3-yl (7-(benzo[c][1,2,5]oxadiazol-5-yl)-3,3-dimethylchroman-4-yl)carbamate] | 0.8 | 2.42
7 | O=C(NC1CCOc2cc(-c3ccccc3Cl)ccc21)O[C@@H]1CN2CCC1CC2 (stereo partly drawn) [Example 10, (S)-quinuclidin-3-yl (7-(2-chlorophenyl)chroman-4-yl)carbamate] | 2.02 | 7.23
8 | COc1ncc(-c2ccc3c(c2)OCC(C)(C)C3NC(=O)O[C@@H]2CN3CCC2CC3)cc1Cl (stereo partly drawn) [Example 215, (S)-quinuclidin-3-yl (7-(5-chloro-6-methoxypyridin-3-yl)-3,3-dimethylchroman-4-yl)carbamate] | 1.57 | 2.51
9 | Cc1ccc(Cl)c(-c2ccc3c(c2)OCC(C)(C)C3NC(=O)O[C@@H]2CN3CCC2CC3)c1 (stereo partly drawn) [Example 224, (S)-quinuclidin-3-yl (7-(2-chloro-5-methylphenyl)-3,3-dimethylchroman-4-yl)carbamate] | 0.62 | 0.6
10 | COc1cccc(OC)c1-c1ccc2c(c1)OCCC2NC(=O)O[C@@H]1CN2CCC1CC2 (stereo partly drawn) [Example 84, (S)-quinuclidin-3-yl (7-(2,6-dimethoxyphenyl)chroman-4-yl)carbamate] | 2.79 | 7.18
11 | COCCOc1ccccc1-c1ccc2c(c1)OCCC2NC(=O)O[C@@H]1CN2CCC1CC2 (stereo partly drawn) [Example 7, (S)-quinuclidin-3-yl (7-(2-(2-methoxyethoxy)phenyl)chroman-4-yl)carbamate] | 3.28 | 34.1
12 | CC(C)c1cccc(-c2ccc3c(c2)OCCC3(C)NC(=O)O[C@@H]2CN3CCC2CC3)c1 (stereo partly drawn) [Example 300, (S)-quinuclidin-3-yl (7-(3-isopropylphenyl)-4-methylchroman-4-yl)carbamate] | 0.23 | 0.9
13 | O=C(NC1CCOc2cc(-c3cccc(Cl)c3)ccc21)O[C@@H]1CN2CCC1CC2 (stereo partly drawn) [Example 2, (S)-quinuclidin-3-yl (7-(3-chlorophenyl)chroman-4-yl)carbamate] | 0.7 | 3.47
14 | CN(C)c1cc(-c2ccc3c(c2)OCCC3NC(=O)O[C@@H]2CN3CCC2CC3)ccc1F (stereo partly drawn) [Example 69, (S)-quinuclidin-3-yl (7-(3-(dimethylamino)-4-fluorophenyl)chroman-4-yl)carbamate] | 1.91 | 8.93
15 | O=C(NC1CCOc2cc(-c3ccccc3C(F)(F)F)ccc21)O[C@@H]1CN2CCC1CC2 (stereo partly drawn) [Example 11, (S)-quinuclidin-3-yl (7-(2-(trifluoromethyl)phenyl)chroman-4-yl)carbamate] | 10.4 | 18.2
16 | CC1(C)COc2cc(/C=C/c3ccsc3)ccc2C1NC(=O)O[C@@H]1CN2CCC1CC2 (stereo partly drawn) [Example 271, (S)-quinuclidin-3-yl (3,3-dimethyl-7-((E)-2-(thiophen-3-yl)vinyl)chroman-4-yl)carbamate] | 1.26 | 9
17 | COc1cccc(F)c1-c1ccc2c(c1)OCC(C)(C)C2NC(=O)O[C@@H]1CN2CCC1CC2 (stereo partly drawn) [Example 122, (S)-quinuclidin-3-yl (7-(2-fluoro-6-methoxyphenyl)-3,3-dimethylchroman-4-yl)carbamate] | 0.96 | 3.75
18 | O=C(NC1CCOc2cc(-c3cccc(C(F)(F)F)c3)ccc21)O[C@@H]1CN2CCC1CC2 (stereo partly drawn) [Example 3, (S)-quinuclidin-3-yl (7-(3-(trifluoromethyl)phenyl)chroman-4-yl)carbamate] | 0.7 | 2.13
19 | O=C(NC1CCOc2cc(-c3cccc4cn[nH]c34)ccc21)O[C@@H]1CN2CCC1CC2 (stereo partly drawn) [Example 49, (S)-quinuclidin-3-yl (7-(1H-indazol-7-yl)chroman-4-yl)carbamate] | 3.8 | 12.3
20 | CC1(C)CC(NC(=O)O[C@@H]2CN3CCC2CC3)c2ccc(-c3cccc(C(F)(F)F)c3)cc2O1 (stereo partly drawn) [Example 295, (S)-quinuclidin-3-yl (2,2-dimethyl-7-(3-(trifluoromethyl)phenyl)chroman-4-yl)carbamate] | 18.1 | 11.2
21 | COc1cc(-c2ccc3c(c2)OCCC3NC(=O)O[C@@H]2CN3CCC2CC3)ccn1 (stereo partly drawn) [Example 68, (S)-quinuclidin-3-yl (7-(2-methoxypyridin-4-yl)chroman-4-yl)carbamate] | 3.65 | 28.3
22 | CC1(C)COc2cc(-c3ccc(C(F)(F)F)cc3Cl)ccc2C1NC(=O)O[C@@H]1CN2CCC1CC2 (stereo partly drawn) [Example 137, (S)-quinuclidin-3-yl (7-(2-chloro-4-(trifluoromethyl)phenyl)-3,3-dimethylchroman-4-yl)carbamate] | 0.62 | 0.11
23 | CC(C)COc1ccc(-c2ccc3c(c2)OCC(C)(C)C3NC(=O)O[C@@H]2CN3CCC2CC3)cc1 (stereo partly drawn) [Example 260, (S)-quinuclidin-3-yl (7-(4-isobutoxyphenyl)-3,3-dimethylchroman-4-yl)carbamate] | 0.51 | 0.3
24 | Cc1cc(F)ccc1-c1ccc2c(c1)OCC(C)(C)C2NC(=O)O[C@@H]1CN2CCC1CC2 (stereo partly drawn) [Example 227, (S)-quinuclidin-3-yl (7-(4-fluoro-2-methylphenyl)-3,3-dimethylchroman-4-yl)carbamate] | 0.56 | 4.5
25 | C=Cc1ccc(-c2ccc3c(c2)OCC(C)(C)C3NC(=O)O[C@@H]2CN3CCC2CC3)cc1 (stereo partly drawn) [Example 272, (S)-quinuclidin-3-yl (3,3-dimethyl-7-(4-vinylphenyl)chroman-4-yl)carbamate] | 0.89 | 4.4
26 | O=C(NC1CCOc2ccc(-c3ccc(C(F)(F)F)cc3)cc21)O[C@@H]1CN2CCC1CC2 (stereo partly drawn) [Example 91, (S)-quinuclidin-3-yl (6-(4-(trifluoromethyl)phenyl)chroman-4-yl)carbamate] | 5.38 | 171
